The record followed here is ChEMBL document CHEMBL3352214, “Studies on indolizines. Evaluation of their biological properties as microtubule-interacting agents and as melanoma targeting compounds” (Eur J Med Chem, 2015).

Test [1] deals with Tubulin. Nature of the test: Inhibition of tubulin (unknown origin) polymerization. Type of test: protein-complex assay, Homo sapiens.
The species entered for test [2] is Ovis aries. Nature of the test: Inhibition of sheep brain tubulin polymerization at 100 uM by fluorescence assay.
Test [3] in a line: Inhibition of sheep brain tubulin polymerization by fluorescence assay. Details: species or system Ovis aries.

SMILES strings stand for the structures.

A word on the IC50: it is the point on the concentration scale where inhibition reaches its midpoint. Read a high IC50 as a need for much substance. As a reminder, the inhibition is the drop in the measured response relative to a control, in per cent. High values mean strong suppression, low ones little suppression. As to `COc1ccc(C(=O)c2cc(OC)c(OC)c(OC)c2)cc1O` [PHENSTATIN], the values for the IC50 in test [1] and in test [3] were 3.4 µM and 3.43 µM, respectively. The molecule also gave an inhibition in test [2] of 99%.
